The test system of this experiment is HUH-1, JHH-5 and HepG2 cells. The experiment in a line: Proliferation assay with OSI-906 after TGFβ treatment. It is filed as cell-based, human. The conditions noted are these: cells grown with 10 ng/ml TGFβ for 10 days, HUH-1, JHH-5, HepG2. The procedure: Proliferation Assay. Proliferation was assayed using Cell Titer Glo assays (Promega) and was determined 72 hours following dosing with OSI-906. The basis of the assay is a luminescent quantitation of ATP present in a cell culture plate well. In essence, the greater the number of viable cells in the well, the greater the level of ATP present. The assay utilizes a substrate that binds ATP to produce a luminescent signal, which can be read on a luminometer. Unless otherwise noted, the manufacturer's instructions were followed exactly. Briefly, on Day 1, cells were plated in 120 μl of 10% serum-containing growth media at a density of 4000 cells/well in a white polystyrene 96 well assay plate. On day 2, cells were treated with 15 μl of 10× concentration of the IGF-1R inhibitor (e.g. OSI-906) or DMSO alone for a final well volume of 150 μl. After 72 h incubation with the inhibitor, the cells were assayed. Results were calculated as a fraction of the DMSO controlled cells.

The structures appear in SMILES notation.

For `C[C@]1(O)C[C@@H](c2nc(-c3ccc4ccc(-c5ccccc5)nc4c3)c3c(N)nccn32)C1` [OSI-906, cis-3-[8-amino-1-(2-phenyl-quinolin-7-yl)-imidazo[1,5-a]pyrazin-3-yl]-1-methyl-cyclobutanol], the “HCC cell sensitivity to OSI-906 after TGFβ treatment” value is on record as “decreased”.

Source of the values: patent US20120214830A1, “BIOLOGICAL MARKERS PREDICTIVE OF ANTI-CANCER RESPONSE TO INSULIN-LIKE GROWTH FACTOR-1 RECEPTOR KINASE INHIBITORS IN HEPATOCELLULAR CARCINOMA” (OSI Pharmaceuticals, LLC, priority 2011, published 2012).
